Drawing on patent US11198695B2, “Fused ring derivative having MGAT-2 inhibitory activity” (Shionogi & Co., Ltd., priority 2017, dated 2021), this text covers IC50 for 44 compounds.

Read-outs that look alike come from different tables or passages of the source.

The assay deals with recombinant human MGAT2 (Homo sapiens (Human), UniProt Q3SYC2). In words: Measurement of human MGAT2 inhibitory activity. The format is biochemical. The method in brief: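 Membrane fraction of Sf9 cells expressing N-terminally Flag-tagged full-length human MGAT2, incubated 1 h at room temperature in 100 mmol/L phosphate pH 7.4 with 2 mmol/L DTT. The substrate solution held 30 μmol/L 2-oleoylglycerol and 10 μmol/L oleoyl-CoA. Diolein product was quantified by RapidFire ESI Q-TOF MS against diolein-d5 internal standard; % inhibition was set relative to with/without-enzyme controls.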

Setting [1] is: read-out: IC50 (concentration exhibiting 50% enzyme inhibition), Table 52.
The mark [2] stands for this setting: read-out: IC50 (concentration exhibiting 50% enzyme inhibition), Table 53.

Chain of recombinant human MGAT2 (Q3SYC2 whole entry): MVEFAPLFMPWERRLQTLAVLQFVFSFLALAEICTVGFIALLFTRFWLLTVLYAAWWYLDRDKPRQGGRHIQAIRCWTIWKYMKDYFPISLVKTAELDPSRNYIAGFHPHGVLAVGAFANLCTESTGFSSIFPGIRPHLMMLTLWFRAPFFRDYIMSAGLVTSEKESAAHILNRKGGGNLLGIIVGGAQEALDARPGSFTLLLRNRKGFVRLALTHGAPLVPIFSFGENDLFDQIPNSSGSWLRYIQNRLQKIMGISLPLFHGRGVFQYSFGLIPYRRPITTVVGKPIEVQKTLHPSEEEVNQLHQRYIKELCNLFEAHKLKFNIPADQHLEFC

On to `CS(=O)(=O)CC(=O)Nc1c2c(nn1-c1ccc(F)cc1)C[C@@]1(CCc3cc(OCC(F)(F)F)ccc31)NC2=O` [Compound I-269], for which the IC50 under setting [1] was determined as 5.5 nM.
On the same count and under the same terms, the same measure for `CS(=O)(=O)NCc1c2c(nn1CCC1CC1)C[C@]1(CCc3cc(OCC(F)(F)F)ccc31)NC2=O` [Compound I-138]: 550 nM.
As to `CS(=O)(=O)CC(=O)Nc1c2c(nn1CCC1CC1)C[C@@]1(CCc3cc(OCC4CC(F)(F)C4)ccc31)NC2=O` [II-82], the IC50 under setting [2] turned out to be 2.49 nM.
Take `CS(=O)(=O)CC(=O)Nc1c2c(nn1-c1ccc(C#N)cn1)CC1(CN(c3ccc(C(F)(F)F)nc3)C1)NC2=O` [II-90]: under setting [2], the IC50 came to 40 nM.
Regarding `CS(=O)(=O)CC(=O)Nc1c2c(nn1CCC1CC1)C[C@]1(CCc3cc(OCC(F)(F)F)cc(F)c31)NC2=O` [Compound I-94], under setting [1], the IC50 was determined as 3.7 nM.
Still for that read-out and setting: the same measure for `CCS(=O)(=O)NC(=O)c1c2c(nn1CCC1CC1)C[C@]1(CCc3cc(OCC(F)(F)F)ccc31)NC2=O` [Compound I-120]: 46 nM.
Take `Cc1ccc(-n2nc3c(c2C(=O)NCC2(CO)CC2)C(=O)N[C@@]2(CCc4cc(OCC(F)(F)F)ccc42)C3)nc1` [II-198]: the IC50 under setting [2] was 4.18 nM.
Same read-out and setting: then `Cc1cc(-n2nc3c(c2NC(=O)CS(C)(=O)=O)C(=O)N[C@@]2(CCc4cc(C(F)(F)F)ccc42)C3)nn1C` [II-278], with 5.92 nM; and `Cc1cc(-n2nc3c(c2NC(=O)CS(C)(=O)=O)C(=O)N[C@@]2(CCc4cc(OCC(F)(F)F)ccc42)C3)nnc1C` [II-139], with 3.15 nM; and `CS(=O)(=O)CC(=O)Nc1c2c(nn1CCC1CC1)C[C@@]1(CCc3cc(N4CC(c5ccccc5)C4)ccc31)NC2=O` [II-33], with 3.3 nM.
Turning to `CS(=O)(=O)CC(=O)Nc1c2c(nn1C1CCCCC1)C[C@]1(CCc3cc(OCC(F)(F)F)ccc31)NC2=O` [Compound I-96], the IC50 under setting [1] is 54 nM.
For `Cc1ccc(-n2nc3c(c2NC(=O)CS(C)(=O)=O)C(=O)N[C@@]2(CCc4cc(OC(C)C)ccc42)C3)nc1` [II-160], the IC50 under setting [2] turned out to be 7.69 nM.
Consider `CS(=O)(=O)CC(=O)Nc1c2c(nn1CCCOC(F)F)C[C@]1(CCc3cc(OCC(F)(F)F)ccc31)NC2=O` [II-173], for which the IC50 under setting [2] was 1.34 nM.
For `Cc1ccc(-n2nc3c(c2C(=O)NCC2(CO)CC2)C(=O)N[C@@]2(CCOc4cc(OCC(F)(F)F)ccc42)C3)nc1` [II-249], the IC50 under setting [2] came to 13.4 nM.
Consider `CS(=O)(=O)CC(=O)Nc1c2c(nn1C1CCCCC1)C[C@@]1(CCc3cc(OCC(F)(F)F)ccc31)NC2=O` [Compound I-273], for which the IC50 under setting [1] was determined as 20 nM.
Consider `CS(=O)(=O)CC(=O)Nc1c2c(nn1CCC1CC1)C[C@@]1(CCc3cc(OCC(F)(F)F)ccc31)NC2=O` [Compound I-71], for which the IC50 under setting [1] amounted to 3.9 nM.
Turning to `CNS(=O)(=O)CC(=O)Nc1c2c(nn1-c1ccc(C#N)cn1)C[C@@]1(CCc3cc(OCC(F)(F)F)ccc31)NC2=O` [II-70], the IC50 under setting [2] was found to be 3.94 nM.
Still for that read-out and setting: then `CS(=O)(=O)CC(=O)Nc1c2c(nn1-c1ccc(C#N)cn1)C[C@]1(CCc3ccccc31)NC2=O` [II-52], with 37 nM.
Still for that read-out and setting: the same measure for `N#Cc1ccc(-n2nc3c(c2C(=O)NCC2(C(F)F)CC2)C(=O)N[C@@]2(CCc4cc(OCC(F)(F)F)ccc42)C3)nc1` [II-192]: 3.48 nM.
As to `Cc1ccc(-n2nc3c(c2NC(=O)CS(C)(=O)=O)C(=O)N[C@@]2(CCc4cc(OCC(F)(F)F)ccc42)C3)nn1` [Compound I-263], the IC50 under setting [1] came out at 4.7 nM.
Still for that read-out and setting: the same measure for `CS(=O)(=O)CC(=O)Nc1c2c(nn1C1CCCC1)C[C@]1(CCc3cc(OCC(F)(F)F)ccc31)NC2=O` [Compound I-76]: 95.5 nM.
Same read-out and setting: then `CS(=O)(=O)CC(=O)Nc1c2c(nn1CCC1CC1)C[C@]1(CCOc3cc(OCC(F)(F)F)ccc31)NC2=O` [Compound I-49], with 1.9 nM.
Turning to `COC1(C)CN(c2ccc3c(c2)CC[C@@]32Cc3nn(CCC4CC4)c(NC(=O)CS(C)(=O)=O)c3C(=O)N2)C1` [II-44], the IC50 under setting [2] is 51 nM.
`N#Cc1ccc(-n2nc3c(c2NC(=O)c2cocn2)C(=O)N[C@@]2(CCc4cc(OCC(F)(F)F)ccc42)C3)nc1` [II-59]: the IC50 under setting [2] turned out to be 33 nM.
For `CS(=O)(=O)CC(=O)Nc1c2c(nn1-c1ccccn1)C[C@]1(CCOc3cc(OCC(F)(F)F)ccc31)NC2=O` [Compound I-105], the IC50 under setting [1] was determined as 6.8 nM.
With `N#Cc1ccc(-n2nc3c(c2C(=O)NCC2(O)CCOC2)C(=O)N[C@@]2(CCc4cc(OCC(F)(F)F)ccc42)C3)nc1` (some centres unmarked) [II-119], the IC50 under setting [2] came out at 26.8 nM.
The same measure, in the same setting: then `Cc1cc(-n2nc3c(c2NC(=O)CS(C)(=O)=O)C(=O)N[C@](C)(c2ccc(CCC(F)(F)F)cc2F)C3)no1` [II-300], with under 1 nM.
As for `O=C1N[C@@]2(CCc3cc(OCC(F)(F)F)ccc32)Cc2nn(CCC3CC3)c(C(=O)NS(=O)(=O)C3CC3)c21` [Compound I-181], the IC50 under setting [1] amounted to 15 nM.
Consider `Cc1ccc(-n2nc3c(c2NC(=O)CS(C)(=O)=O)C(=O)N[C@@]2(CCOc4cc(Cl)ccc42)C3)nc1` [II-147], for which the IC50 under setting [2] amounted to 4.92 nM.
As for `CC(C)(O)c1ccc(-n2nc3c(c2NC(=O)CS(C)(=O)=O)C(=O)N[C@@]2(CCc4cc(OCC(F)(F)F)ccc42)C3)nc1` [Compound I-237], the IC50 under setting [1] turned out to be 16 nM.
As to `CS(=O)(=O)CC(=O)Nc1c2c(nn1-c1ccc(C#N)cn1)CC1(CN(c3nc(C(F)(F)F)co3)C1)NC2=O` [II-79], the IC50 under setting [2] was determined as 110 nM.
For `CS(=O)(=O)CC(=O)Nc1c2c(nn1-c1ccc(C(F)(F)F)cn1)C[C@]1(CCc3cc(F)cc(F)c31)NC2=O` [Compound I-285], under setting [1], the IC50 stood at 3.5 nM.
Consider `CC1(CNC(=O)c2c3c(nn2-c2ccc(C#N)cn2)C[C@]2(CCc4cc(OCC(F)(F)F)ccc42)NC3=O)COC1` [II-186], for which the IC50 under setting [2] worked out at 2.92 nM.
`COc1cccc(C(=O)Nc2c3c(nn2CCC2CC2)C[C@]2(CCc4cc(OCCCC(F)(F)F)ccc42)NC3=O)c1` [Compound I-17]: the IC50 under setting [1] was determined as 160 nM.
For the compound `CS(=O)(=O)CC(=O)Nc1c2c(nn1CCCOC(F)(F)F)C[C@@]1(CCc3cc(OCC(F)(F)C(F)F)ccc31)NC2=O` [II-237], the IC50 under setting [2] was 3.43 nM.
On to `O=C(Nc1c2c(nn1CCC1CC1)C[C@]1(CCc3cc(OCC(F)(F)F)ccc31)NC2=O)c1cnccn1` [Compound I-217], for which the IC50 under setting [1] turned out to be 89.5 nM.
Same read-out and setting: then `CS(=O)(=O)CC(=O)Nc1c2c(nn1CCC1CC1)C[C@]1(CCc3cc(N4CCC4)ccc31)NC2=O` [Compound I-235], with 85 nM.
For the compound `CNS(=O)(=O)CC(=O)Nc1c2c(nn1-c1ccc(C)cn1)C[C@]1(CCOc3cc(OCC(F)(F)F)ccc31)NC2=O` [II-271], the IC50 under setting [2] worked out at 1.34 nM.
`O=C(NCc1c2c(nn1CCC1CC1)C[C@]1(CCc3cc(OCC(F)(F)F)ccc31)NC2=O)c1ccc(O)cc1` [Compound I-241]: under setting [1], the IC50 turned out to be 380 nM.
The same measure, in the same setting: the same measure for `O=C1N[C@@]2(CCc3cc(OCCCC(F)(F)F)ccc32)Cc2nn(CCC3CC3)c(C(=O)O)c21` [Compound I-9]: 70 nM.
Consider `Cc1ccc(-n2nc3c(c2NC(=O)CS(C)(=O)=O)C(=O)N[C@@]2(CCc4cc(OCC(C)(C)F)ccc42)C3)nc1` [II-161], for which the IC50 under setting [2] worked out at 4.67 nM.
With `Cc1ccc(-n2nc3c(c2NC(=O)CS(C)(=O)=O)C(=O)N[C@@]2(CCOc4cc(OCC(F)(F)F)ccc42)C3)cc1` [Compound I-274], under setting [1], the IC50 amounted to 3.9 nM.
Turning to `O=C1N[C@]2(CCOc3cc(OCC(F)(F)F)ccc32)Cc2nn(CCCOC(F)(F)F)c(NC(=O)C3CS(=O)(=O)C3)c21` [II-293], the IC50 under setting [2] is 2.76 nM.
Consider `CS(=O)(=O)CC(=O)Nc1c2c(nn1CCCCC(F)(F)F)C[C@]1(CCc3cc(OCC(F)(F)F)ccc31)NC2=O` [Compound I-255], for which the IC50 under setting [1] was 17 nM.
